Assay results: ChEMBL document CHEMBL1126161, “3,4-Dihydroquinolin-2(1H)-ones as combined inhibitors of thromboxane A2 synthase and cAMP phosphodiesterase” (J Med Chem, 1992)
Blank lines part the entries; values can stand above or below the molecule they belong to.

Experiments:
[1] = organism: Homo sapiens; experiment: In vitro inhibition of ADP-induced aggregation of human PRP in the presence of pig aortal microsomes (PAM).; type: functional
[2] = organism: Homo sapiens; experiment: Ratio of IC50(w/oPAM)/IC50(w/PAM); type: functional
[3] = organism: Homo sapiens; experiment: Inhibition of ADP-induced aggregation of human PRP in the absence of pig aortal microsomes (PAM); type: functional
[4] = organism: Homo sapiens; experiment: Inhibition of [14C]arachidonic acid induced TXB2 formation at 5 uM (Control TXB2 = 14.9+/-2.5)
[5] = system: Rattus norvegicus; experiment: Ex vivo inhibition of blood platelet aggregation in rats at 100 mg/kg peroral dose after 5 hr; type: functional; details: route oral
[6] = system: Mus musculus; experiment: Protection against mortality in pulmonary thromboembolism model in mice at 1 mg/kg; type: functional
[7] = organism: Homo sapiens; experiment: Inhibition of [14C]arachidonic acid induced platelet aggregation at 50 uM (Control 6-keto-PGF1-alpha = 1.45+/-0.6); type: functional
[8] = system: Mus musculus; experiment: Protection against mortality in pulmonary thromboembolism model in mice at 9 mg/kg; type: functional
[9] = system: Rattus norvegicus; experiment: Ex vivo inhibition of blood platelet aggregation in rats at 100 mg/kg peroral dose after 3 hr; type: functional; details: route oral
[10] = organism: Mus musculus; experiment: Time course of protection against mortality in a pulmonary thromboembolism model in mice after -1h; type: functional
[11] = system: Mus musculus; experiment: Protection against mortality in pulmonary thromboembolism model in mice at 12 mg/kg; type: functional
[12] = system: Rattus norvegicus; experiment: Ex vivo inhibition of blood platelet aggregation in rats at 100 mg/kg peroral dose after 8 hr; type: functional; details: route oral
[13] = organism: Mus musculus; experiment: Time course of protection against mortality in a pulmonary thromboembolism model in mice after -7h; type: functional
[14] = system: Mus musculus; experiment: Protection against mortality in pulmonary thromboembolism model in mice at 30 mg/kg; type: functional
[15] = organism: Mus musculus; experiment: Time course of protection against mortality in a pulmonary thromboembolism model in mice after -3h; type: functional
[16] = organism: Mus musculus; experiment: Time course of protection against mortality in a pulmonary thromboembolism model in mice after -5h; type: functional
[17] = organism: Homo sapiens; experiment: Inhibition of [14C]arachidonic acid induced platelet aggregation at 50 uM (Control TXB2 = 14.9+/-2.5); type: functional
[18] = system: Rattus norvegicus; experiment: Effect of TXA2 synthase inhibitor (compound) on serum TXB2 level in rats at 50 mg/kg po, after 2 hr.; type: functional
[19] = molecular target: T1, Thromboxane-A synthase (Homo sapiens, UniProt P24557); experiment: Compound was evaluated for the inhibition of human blood platelet thromboxane A2 synthase
T1 sequence (P24557 whole entry): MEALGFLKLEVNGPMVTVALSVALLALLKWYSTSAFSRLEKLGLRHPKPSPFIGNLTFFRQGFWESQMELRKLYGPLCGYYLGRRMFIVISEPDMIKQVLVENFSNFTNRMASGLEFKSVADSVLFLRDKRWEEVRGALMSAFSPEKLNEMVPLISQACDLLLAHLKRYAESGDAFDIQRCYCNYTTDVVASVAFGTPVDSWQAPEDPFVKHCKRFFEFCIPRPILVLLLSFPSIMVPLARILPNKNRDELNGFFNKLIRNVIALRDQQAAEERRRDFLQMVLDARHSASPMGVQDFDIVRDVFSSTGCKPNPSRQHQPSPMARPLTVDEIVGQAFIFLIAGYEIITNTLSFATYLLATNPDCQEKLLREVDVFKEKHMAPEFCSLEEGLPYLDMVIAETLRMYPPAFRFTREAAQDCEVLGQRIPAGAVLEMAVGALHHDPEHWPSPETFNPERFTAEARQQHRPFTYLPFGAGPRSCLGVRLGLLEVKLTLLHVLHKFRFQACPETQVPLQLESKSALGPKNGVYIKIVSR

[20] = molecular target: Phosphodiesterase 3 (Homo sapiens, UniProt Q14432+Q13370); experiment: Inhibition of human blood platelet c-AMP phosphodiesterase
[21] = system: Rattus norvegicus; experiment: Antihypertensive activity in conscious spontaneously hypertensive rat (SHR), percent change in heart rate (beats/min) after 1 hr at 10 mg/kg peroral dose; type: functional; details: route oral
[22] = system: Rattus norvegicus; experiment: Antihypertensive activity in conscious spontaneously hypertensive rat (SHR), percent change in heart rate (beats/min) after 2 hr at 10 mg/kg peroral dose; type: functional; details: route oral
[23] = system: Rattus norvegicus; experiment: Antihypertensive activity in conscious spontaneously hypertensive rat (SHR), percent change in heart rate (beats/min) after 4 hr at 10 mg/kg peroral dose; type: functional; details: route oral
[24] = system: Rattus norvegicus; experiment: Antihypertensive activity in conscious spontaneously hypertensive rat (SHR), percent change in Systolic blood pressure (SBP) after 4 hr at 10 mg/kg peroral dose; type: functional; details: route oral
[25] = system: Rattus norvegicus; experiment: Antihypertensive activity in conscious spontaneously hypertensive rat (SHR), percent change in Systolic blood pressure (SBP) after 1 hr; type: functional; parameters: concentration or dose not given beside the values
[26] = system: Rattus norvegicus; experiment: Antihypertensive activity in conscious spontaneously hypertensive rat (SHR), percent change in Systolic blood pressure (SBP) after 2 hr at 10 mg/kg peroral dose; type: functional; details: route oral
[27] = system: Rattus norvegicus; experiment: Effect of TXA2 synthase inhibitor (compound) on serum TXB2 level in rats at 50 mg/kg po, after 2 hr; type: functional
[28] = molecular target: T1, Thromboxane-A synthase; experiment: Compound was evaluated for the inhibition of human blood platelet, thromboxane A2 synthase
[29] = organism: Homo sapiens; experiment: Inhibition of ADP-induced platelet aggregation of human PRP in the presence of pig aortal microsomes (PAM); type: functional
[30] = system: Mus musculus; experiment: Protection against mortality in pulmonary thromboembolism model in mice at 3 mg/kg; type: functional
[31] = organism: Homo sapiens; experiment: Inhibition of ADP-induced platelet aggregation of human PRP without pig aortal microsomes (PAM); type: functional

Structure (SMILES): CC(Cc1cccnc1)c1ccc2c(c1)CCC(=O)N2 (stereo not drawn)
IC50 [1]: 35 µM

Structure (SMILES): Cl.O=C(O)c1ccc(OCCn2ccnc2)cc1 [DAZOXIBEN HYDROCHLORIDE]
TXB2 level at 5 µM [4]: 2.4%
inhibition in vivo at 100 mg/kg [5]: 24.6%
survival at 1 mg/kg [6]: 20%
6-keto-PGF1α level at 50 µM [7]: 25.2%
survival at 9 mg/kg [8]: 40%
inhibition in vivo at 100 mg/kg [9]: 23.4%
Survival [10]: 40%
survival at 12 mg/kg [11]: 50%
inhibition in vivo at 100 mg/kg [12]: 50.9%
Survival [13]: 10%
survival at 30 mg/kg [14]: 50%
Survival [15]: 20%
Survival [16]: 20%
inhibition at 50 µM [17]: 1.5%
inhibition in vivo at 50 mg/kg [18]: 74%

Structure (SMILES): CCCCCC(Cn1ccnc1)c1ccc2c(c1)CCC(=O)N2 (stereo not drawn)
IC50 [19]: 25 µM
IC50 [1]: 25 µM
IC50 [20]: 14 µM

Structure (SMILES): CCCCC/C(=C\c1cccnc1)c1ccc2c(c1)CCC(=O)N2
IC50 [1]: 58 µM

Structure (SMILES): O=c1ccc2cc(/C=C/n3ccnc3)ccc2[nH]1
IC50 [28]: 0.38 µM

Structure (SMILES): Cc1c(Cn2ccnc2)c2ccccc2n1CCC(=O)O [DAZMEGREL]
survival at 1 mg/kg [6]: 30%
IC50 [29]: 2 µM
survival at 9 mg/kg [8]: 50%
Survival [10]: 11%
survival at 12 mg/kg [11]: 60%
Survival [13]: 10%
survival at 30 mg/kg [14]: 20%
survival at 3 mg/kg [30]: 30%
Survival [15]: 20%
IC50 [31]: 97 µM
Survival [16]: 0%

Structure (SMILES): O=C1CCc2cc(C(Cn3ccnc3)c3ccccc3)ccc2N1 (stereo not drawn)
IC50 [1]: 200 µM

Structure (SMILES): O=C1CCc2cc(/C(=C/c3cccnc3)c3ccccc3)ccc2N1
IC50 [1]: 170 µM

The next lines start with results.

IC50 [3]: 13 µM
IC50 [1]: 1.6 µM
Structure (SMILES): C/C(=C\n1ccnc1)c1ccc2c(c1)CCC(=O)N2
Ratio [2]: 8.1

IC50 [3]: 11 µM
IC50 [1]: 3 µM
Structure (SMILES): O=C1CCc2cc(C(c3ccccc3)c3cccnc3)ccc2N1 (stereo not drawn)

IC50 [3]: 140 µM
IC50 [1]: 8.3 µM
Structure (SMILES): O=C1CCc2cc(CCn3ccnc3)ccc2N1
Change in heart rate [21]: 17%
Change in heart rate [22]: 34%
Change in heart rate [23]: 12%
Change systolic BP [24]: -13%
Ratio [2]: 17
Change systolic BP [25]: -14%
Change systolic BP [26]: -2%

IC50 [3]: 160 µM
IC50 [1]: 1.7 µM
Structure (SMILES): O=C1CCc2cc(/C=C/Cn3ccnc3)ccc2N1
Change in heart rate [21]: 15%
Change in heart rate [22]: 15%
Change in heart rate [23]: 14%
inhibition in vivo at 50 mg/kg [27]: -28%
Change systolic BP [24]: 5%
Ratio [2]: 94
Change systolic BP [25]: -19%
Change systolic BP [26]: -17%

IC50 [3]: 95 µM
IC50 [1]: 6.2 µM
Structure (SMILES): O=C1CCc2cc(/C=C/c3cccnc3)ccc2N1
Change in heart rate [21]: 11%
Change in heart rate [22]: 23%
Change in heart rate [23]: 32%
Change systolic BP [24]: -12%
Ratio [2]: 15
Change systolic BP [25]: -7%
Change systolic BP [26]: -7%

IC50 [1]: 8.5 µM
Structure (SMILES): O=C1CCc2cc(CCc3cccnc3)ccc2N1
